Experimental data as given in publication PMC6272192, “Synthesis and Biological Evaluation of N-Alkyl-3-(alkylamino)-pyrazine-2-carboxamides” (Molecules, 2015).
Values after ≈ are worked out from the molar mass of the structure shown. Like-named read-outs stand apart in the source and are kept apart here.

What was measured:
[1] = tested on: M. tuberculosis H37Rv; test: in vitro antimycobacterial activity, microdilution panel method; assay type: cell-based, Mycobacterium tuberculosis; settings: for MIC: Mycobacterium tuberculosis
[2] = tested on: Trichophyton mentagrophytes; test: in vitro antifungal activity, microdilution broth method; assay type: cell-based; settings: for MIC: Trichophyton mentagrophytes
Experimental: Antifungal evaluation was performed using microdilution broth method against 8 fungal strains (Candida albicans ATCC 44859, C. tropicalis 156, C. krusei E28, C. glabrata 20/I, Trichosporon asahii 1188, Aspergillus fumigates 231, Absidia corymbifera 272 and Trichophyton mentagrophytes 445). Compounds were dissolved in DMSO and diluted in a twofold manner with RPMI 1640 medium with glutamine buffered to pH 7.0 (3-morpholinopropane-1-sulfonic acid). […] Static incubation was performed in the dark and humid, at 35 °C for 24 and 48 h (respectively 72 and 120 h for Trichophyton mentagrophytes). The MIC was defined as 80% inhibition of control (50% IC for filament fungi). Drug-free controls were included. The standards were amphotericin B, voriconazole, nystatin and fluconazole.

[3] = tested on: photosystem 2 photosynthetic electron transport (PET) in spinach chloroplasts; test: inhibition of photosynthetic electron transport (PET) in spinach chloroplasts (Hill reaction, DCPIP); assay type: biochemical, Spinacia oleracea L.; settings: for IC50 / PET-inhibiting activity (in words): spinach chloroplasts
Experimental: Chloroplasts were prepared from spinach (Spinacia oleracea L.) according to Masarovicova and Kralova. The inhibition of photosynthetic electron transport (PET) in spinach chloroplasts was determined spectrophotometrically (Genesys 6, Thermo Electron Scientific Instruments, Madison, WI, USA), using an artificial electron acceptor 2,6-dichlorophenol-indophenol (DCPIP) according to Kralova et al., and the rate of photosynthetic electron transport (PET) was monitored as a photoreduction of DCPIP. The measurements were carried out in phosphate buffer (0.02 mol/L, pH 7.2) containing sucrose (0.4 mol/L), MgCl2 (0.005 mol/L) and NaCl (0.015 mol/L). The chlorophyll content was 30 mg/L in these experiments and the samples were irradiated (~100 W/m^2 with 10 cm distance) with a halogen lamp (250 W) using a 4 cm water filter to prevent warming of the samples (suspension temperature 22 °C). The studied compounds were dissolved in DMSO due to their limited water solubility. […] The inhibitory efficiency of the studied compounds was expressed by IC50 values, i.e., by molar concentration of the compounds causing 50% PET inhibition relative to the untreated control.

[4] = determination of lipophilicity by HPLC (log k); settings: HPLC capacity factor, C18 column, MeOH 70% / H2O 30%
Description: Instrumentation: Agilent Technologies 1200 SL liquid chromatograph with Diode-array Detector SL G1315C (Agilent Technologies Inc., Colorado Springs, CO, USA); pre-column ZORBAX XDB-C18 5 μm, 4 × 4 mm, Part No. 7995118-504 (Agilent Technologies Inc.) and column ZORBAX Eclipse XDB-C18 5 μm, 4.6 × 250 mm, Part No. 7995118-585 (Agilent Technologies Inc.). The separation process was controlled by Agilent ChemStation, version B.04.02 extended by spectral module (Agilent Technologies Inc.). Mobile phase consisted of MeOH (HPLC grade, 70%) and H2O (HPLC-Milli-Q Grade, 30%). Conditions: Flow rate 1.0 mL/min, sample injection volume 20 μL, column temperature 30 °C, detection wavelength 210 nm, monitor wavelength 270 nm. Retention times (tR) were measured in minutes. The dead time of the system (tD) was determined as the retention time of KI methanol solution. Capacity factors k for individual compounds were calculated according to the formula k = (tR − tD)/tD. Log k, calculated from the capacity factor k, is used as the lipophilicity index converted to log scale.

[5] = tested on: Staphylococcus epidermidis; test: in vitro antibacterial activity, microdilution broth method; assay type: cell-based
Experimental: Microdilution broth method. Antibacterial evaluation was performed against bacterial strains from Czech Collection of Microorganisms (Brno, Czech Republic) (Staphylococcus aureus CCM 4516/08, Escherichia coli CCM 4517, Pseudomonas aeruginosa CCM 1961) or clinical isolates from Department of Clinical Microbiology, University Hospital and Faculty of Medicine in Hradec Králové, Charles University in Prague, Czech Republic (Staphylococcus aureus H 5996/08-methicilin resistant (MRSA), Staphylococcus epidermidis H 6966/08, Enterococcus sp. J 14365/08, Klebsiella pneumoniae D 11750/08, Klebsiella pneumoniae J 14368/08-ESBL positive). All strains were subcultured on Mueller-Hinton agar (MHA) (Difco/Becton Dickinson, Detroit, MI, USA) at 35 °C and maintained on the same medium at 4 °C. The compounds were dissolved in DMSO, and the antibacterial activity was determined in Mueller-Hinton liquid broth (Difco/Becton Dickinson), buffered to pH 7.0. Controls consisted of medium and DMSO alone. […] The standards were neomycin, bacitracin, penicillin G, ciprofloxacin and phenoxymethylpenicilin.

[6] = tested on: M. tuberculosis H37Rv; settings: previously prepared 3-alkylaminopyrazine-2-carboxamides; cited from earlier work
[7] = Middlebrook 7H9, Alamar Blue after 14 days
[8] = 336 h, Middlebrook 7H9, Alamar Blue after 14 days, read-out: MIC M. tuberculosis
[9] = DCPIP photoreduction, read-out: IC50 (PET-inhibiting activity)

SMILES	MIC [1, 8] [µg/mL]	MIC [2] [µM]	IC50 [3, 9] [µM]	log k [4]	other results
CCCCCCNc1nccnc1C(=O)NC [Compound 14, 3-(Hexylamino)-N-methylpyrazine-2-carboxamide]	25	250 (≈ 59.1 µg/mL)	125	0.876	MIC M. tuberculosis [1, 7]: 25 µg/mL (≈ 106 µM)
CCNC(=O)c1nccnc1Cl [Compound 2, 3-Chloro-N-ethylpyrazine-2-carboxamide]	> 100			−0.591	PET-inhibiting activity (in words) [3]: inactive
CCCCCNc1nccnc1C(=O)NCC [Compound 21, N-Ethyl-3-(pentylamino)pyrazine-2-carboxamide]	50	250 (≈ 59.1 µg/mL)	301	0.855	MIC M. tuberculosis [1, 7]: 50 µg/mL (≈ 212 µM); IC50 (PET) fold higher than that of compound 14 ([3]; ratio to IC50 of 14): 2.4 fold
CCCCCCCNc1nccnc1C(=O)NC [Compound 15, 3-(Heptylamino)-N-methylpyrazine-2-carboxamide]	25	125 (≈ 31.3 µg/mL)	65	1.118	MIC [5]: 250 µM (≈ 62.6 µg/mL)
CCCCNC(=O)c1nccnc1NCCCC [Compound 26, N-Butyl-3-(butylamino)pyrazine-2-carboxamide]	50		202	1.077	
CNC(=O)c1nccnc1NC [Compound 9, N-Methyl-3-(methylamino)pyrazine-2-carboxamide]	> 100		5650	−0.279	
CCCCCCNc1nccnc1C(N)=O [3-hexylamino-]					MIC [6]: 50 µg/mL (≈ 225 µM)
CCCCCCNC(=O)c1nccnc1Cl [Compound 6, 3-Chloro-N-hexylpyrazine-2-carboxamide]	100	250 (≈ 60.4 µg/mL)	1070	0.239	
CCCNc1nccnc1C(=O)NC [Compound 11, N-Methyl-3-(propylamino)pyrazine-2-carboxamide]	> 100			0.166	
CCCCNc1nccnc1C(=O)NC [Compound 12, 3-(Butylamino)-N-methylpyrazine-2-carboxamide]	100		523	0.401	
CCCCCCNc1nccnc1C(=O)NCC [Compound 22, N-Ethyl-3-(hexylamino)pyrazine-2-carboxamide]	50	125 (≈ 31.3 µg/mL)	78	1.094	
CCCCCCCCNC(=O)c1nccnc1Cl [Compound 8, 3-Chloro-N-octylpyrazine-2-carboxamide]	50	62.5 (≈ 16.9 µg/mL)	55	0.702	MIC Trichophyton mentagrophytes [2]: 62.5 µM (≈ 16.9 µg/mL)
CN(C)C(=O)Nc1ccc(Cl)c(Cl)c1 [DCMU, 3-(3,4-dichlorophenyl)-1,1-dimethylurea, reference compound]			2		IC50 ([3]; read-out: IC50 (PET inhibition, Hill reaction)): ~1.9 µM
CCCCCNc1nccnc1C(=O)NC [Compound 13, N-Methyl-3-(pentylamino)pyrazine-2-carboxamide]	50	250 (≈ 55.6 µg/mL)	544	0.638	
CCNc1nccnc1C(=O)NC [Compound 10, 3-(Ethylamino)-N-methylpyrazine-2-carboxamide]	> 100			−0.052	
CCCCNc1nccnc1C(=O)NCC [Compound 20, 3-(Butylamino)-N-ethylpyrazine-2-carboxamide]	> 100		1090	0.617	
CCNC(=O)c1nccnc1NCC [Compound 18, N-Ethyl-3-(ethylamino)pyrazine-2-carboxamide]	> 100			0.163	PET-inhibiting activity (in words) [3]: not active
CCCCCCCNc1nccnc1C(N)=O [3-heptyamino-]					MIC [6]: 50 µg/mL (≈ 212 µM)
CNC(=O)c1nccnc1Cl [Compound 1, 3-Chloro-N-methylpyrazine-2-carboxamide]	> 100			−0.747	PET-inhibiting activity (in words) [3]: inactive
CCCNC(=O)c1nccnc1Cl [Compound 3, 3-Chloro-N-propylpyrazine-2-carboxamide]	> 100			−0.414	PET-inhibiting activity (in words) [3]: inactive
CCCNC(=O)c1nccnc1NCCC [Compound 25, N-Propyl-3-(propylamino)pyrazine-2-carboxamide]	> 100		1300	0.600	
CCCCCCCNc1nccnc1C(=O)NCC [Compound 23, N-Ethyl-3-(heptylamino)pyrazine-2-carboxamide]	50	125 (≈ 33 µg/mL)	48	1.337	MIC [5]: 250 µM (≈ 66.1 µg/mL)
CCCCCNC(=O)c1nccnc1Cl [Compound 5, 3-Chloro-N-pentylpyrazine-2-carboxamide]	> 100		1390	0.012	
CCCCCCCNC(=O)c1nccnc1NCCCCCCC [Compound 29, N-Heptyl-3-(heptylamino)pyrazine-2-carboxamide]	> 100		1120	2.503	
CCCNc1nccnc1C(=O)NCC [Compound 19, N-Ethyl-3-(propylamino)pyrazine-2-carboxamide]	> 100		2050	0.382	MIC [5]: 250 µM (≈ 52.1 µg/mL); IC50 (PET) fold higher than that of compound 12 ([3]; ratio to IC50 of 12): 3.9 fold
CCCCCCCCNc1nccnc1C(N)=O [3-octylaminopyrazine-2-carboxamide]					MIC [6]: 50 µg/mL (≈ 200 µM)
NNC(=O)c1ccncc1 [INH, Isoniazid, reference compound]	0.1 to 0.39				MIC M. tuberculosis [1, 7]: 0.1 to 0.39 µg/mL; MIC ([1]; conversion of the μg/mL value, read-out: MIC M. tuberculosis in molar units): 0.7 to 2.9 µM
CCNC(=O)c1nccnc1NC [Compound 17, N-Ethyl-3-(methylamino)pyrazine-2-carboxamide]	> 100			−0.063	PET-inhibiting activity (in words) [3]: not active
CCCCCCCNC(=O)c1nccnc1Cl [Compound 7, 3-Chloro-N-heptylpyrazine-2-carboxamide]	100	125 (≈ 32 µg/mL)	256	0.470	
CCCCNC(=O)c1nccnc1Cl [Compound 4, N-Butyl-3-chloropyrazine-2-carboxamide]	> 100		4010	−0.209	
